Measured values published in publication PMC11218446, “Antibacterial efficacy and membrane mechanism of action of the Serratia-derived non-ionic lipopeptide, serrawettin W2-FL10” (Microbiology Spectrum, 2024).
Several values for one entry are separate records, joined by “and”; a condition that tells them apart may be missing. Identical values can stand only once.

Tests used:
[1] = system: tested Gram-negative bacterial strains; assay: Broth microdilution assay (OD 600 nm); format: cell-based; conditions: results not shown
Text: The S. marcescens NP2 strain was previously isolated from a wastewater treatment plant sample and the identity of the strain was confirmed via molecular typing ([47]). The S. marcescens NP2 strain was deposited in the South African Rhizobium Culture Collection (SARCC no. 3157). The test bacterial strains used in the broth microdilution assay included L. monocytogenes ATCC 13932, E. faecalis ATCC 7080, S. aureus ATCC 25923, S. aureus RN4220, MRSA Xen 30, E. faecalis S1, E. faecium S1, B. subtilis ATCC 6051, E. coli ATCC 417371, P. aeruginosa ATCC 27853, K. pneumoniae ATCC 13383, A. baumannii ATCC 19606, and S. typhimurium ATCC 14028. […]
All the cultures (inoculated into 5 mL MHB, or 5 mL TSB for Listeria and Enterococcus strains) were incubated at 37°C to reach an optical density (OD) of 0.4 at 600 nm (∼10^7 CFU/mL). […] Following incubation, the absorbance was measured using a microtiter plate reader at 600 nm. […]
The “top” and “bottom” are the maximum and minimum inhibition responses, respectively, for a particular set of dose-response data, while the activity slope is related to the Hill slope of a sigmoidal binding curve ([16]). […] In addition to the MIC and IC50 inhibition parameters, an inhibition concentration factor (ICF), was calculated as outlined in Rautenbach et al. ([17]). […]

[2] = system: S. aureus Xen 30 (MRSA Xen 30); assay: Broth microdilution assay (OD 600 nm); format: cell-based, Staphylococcus aureus
Method: Serrawettin W2-FL10 (95% pure) was tested for antibacterial activity using a broth microdilution susceptibility assay ([6]), with melittin included as an antibiotic control. The serrawettin W2-FL10 was prepared in 70% MeCN to 1.00 mg/mL, from which aliquots were prepared using 70% MeCN to a concentration of 50 µg/mL or 500 µg/mL, while aliquots of melittin were prepared using analytical quality H2O to 128 µg/mL. Fifty microliters of the respective W2-FL10 aliquots or melittin were dispensed into a clear 96-well plate and a microdilution (in 70% MeCN for W2-FL10 or analytical quality H2O for melittin) was performed within the plate. The plate was air-dried to remove the solvent and placed in a desiccator with chloroform for 20 min for sterilization.
All the cultures (inoculated into 5 mL MHB, or 5 mL TSB for Listeria and Enterococcus strains) were incubated at 37°C to reach an optical density (OD) of 0.4 at 600 nm (∼10^7 CFU/mL). A 1:20 dilution of the test strain (final concentration of ∼10^5 CFU/mL) was prepared and 100 µL was dispensed into each well (final concentration of W2-FL10 at 1.5–125 µg/mL and melittin at 2–32 µg/mL). Sterile broth and the OD-adjusted inoculum were included as positive controls, while sterile broth (no inoculum) was included as a negative control. The 96-well plate was incubated for 18 h at 37°C. All the tests were performed in triplicate, with independent duplicates. Following incubation, the absorbance was measured using a microtiter plate reader at 600 nm. The 50% growth inhibition concentration (IC50) was determined using GraphPad Prism version 5 for Windows [GraphPad Software, San Diego, USA (www.graphpad.com)]. A sigmodal curve with variable slope was fitted to each set of dose-repose data according to Rautenbach et al. ([17]) using equation (1):
(1) Y=bottom+(top−bottom)/1+10^logIC50×Activity slope
The “top” and “bottom” are the maximum and minimum inhibition responses, respectively, for a particular set of dose-response data, while the activity slope is related to the Hill slope of a sigmoidal binding curve ([16]). […] The MIC value was determined for each set of dose-response data as the lowest concentration, resulting in ≥90% inhibition of the target cell growth. In addition to the MIC and IC50 inhibition parameters, an inhibition concentration factor (ICF), was calculated as outlined in Rautenbach et al. ([17]). The ICF is indicative of the concentration increase from the highest concentration where no activity is observed to the MIC of a compound.

MRSA Xen 30 = assay: Membrane permeability assay, propidium iodide; format: cell-based, Staphylococcus aureus; conditions: 25 µg/mL
Method: (§1) The membrane permeability capabilities of the W2-FL10 against the S. aureus strains were determined using PI ([56]). Briefly, black 96-well plates were prepared with W2-FL10 at 6.25, 12.5, and 25 µg/mL, while 4–16 µg/mL of melittin was used as a positive permeability control, and the plates were dried as described in the “Antibacterial activity: broth microdilution assay” section. The S. aureus strains were inoculated into MHB, grown to mid-log phase (OD600 of 0.5–0.6), and diluted to OD600 of 0.3. PI (stock concentration of 1 mg/mL in analytical quality H2O) was added to the cell suspension to a final concentration of 10 µg/mL and cells were incubated in the dark at room temperature for 20 min. Thereafter, 100 µL of OD-adjusted PI cells in the mid-log phase were dispensed into each well. Sterile broth and the OD-adjusted inoculum with PI were included as a non-fluorescent control, while sterile broth with PI was included as a sterility control, and melittin was included as membrane depolarization control. All the tests were performed in triplicate, with independent duplicates. Fluorometric readings of the plate were conducted in 4-min intervals over 60 min (readings began ~60 s after cells were added to the plate) using a Tecan Spark at 535 nm excitation wavelength and 617 nm emission wavelength.
(§2) The leakage kinetics or PI permeabilization kinetic was assessed using a rate parameter of ΔPI fluorescence per minute. This was done by fitting linear regression lines on the linear sections, namely 6–16 min for melittin and 6–18 min, as well as 34–50 min for W2-FL10. The rates of PI permeabilization were compared between the three S. aureus strains using a one-way ANOVA with Bonferroni’s post hoc test.

S. aureus ATCC 25923 = assay: Membrane permeability assay, propidium iodide; format: cell-based, Staphylococcus aureus; conditions: 25 µg/mL
Method: as §1, §2

S. aureus RN4220 = assay: Membrane permeability assay, propidium iodide; format: cell-based, Staphylococcus aureus; conditions: 25 µg/mL
Method: as §1, §2

In the case of `CCCCCCCC1CC(=O)N[C@H](CC(C)C)C(=O)N[C@@H](CO)C(=O)N[C@@H]([C@@H](C)O)C(=O)N[C@H](Cc2ccccc2)C(=O)N[C@@H](CC(C)C)C(=O)O1` (some centres unmarked) [W2-FL10, serrawettin W2-FL10], the MIC [1] is reported as greater than 125 µg/mL, the “IC50 ± SD” value ([2]; 50% growth inhibition, sigmoidal curve fit, n = 3) is reported as 5.7 ± 0.6 (3) µg/mL and the Selectivity index ([2]; LC50 (CHO)/IC50) is reported as 5.1. For the same molecule, the “ICF (MIC/IC50)^2” value ([2]; inhibition concentration factor) was 4.8, the MIC ([2]; ≥90% growth inhibition, OD 600 nm, MHB, 18 h 37°C) was 12.5 μg/mL and 12.5 (17.1) μg/mL and the “time within which ≥90% uptake in PI fluorescence was observed” value (“time within which ≥90% uptake” for short) (MRSA Xen 30) was ≤ 3,240 s. For the same molecule, the “time within which ≥90% uptake” value (S. aureus ATCC 25923) was ≤ 3,360 s and the “time within which ≥90% uptake” value (S. aureus RN4220) was ≤ 2,760 s.
